Assay results from US20260232752A1, “COMBINATION THERAPY METHODS, COMPOSITIONS AND KITS” (Accure Therapeutics, S.L., priority 2019, published 2026).
Counter-ions that a name gives are not always drawn.

Key:
[1] = system: human neuroblastoma cell line SH-SY5Y; assay: Neuroprotection against H2O2 oxidative stress, MTT assay; assay type: cell-based; conditions: 1 hour preincubation at 0.03-40 μM, then H2O2 15 μM 30 minutes
Method: The objective of the study was to test the possible synergistic effect of the BN201-monomethylfumarate salt in a neuroprotective assay. Thus, BN201-monomethylfumarate salt obtained as indicated in example 5, was tested for its ability to protect the human neuroblastoma cell line SH-SY5Y against death induced by oxidative stress (i.e., hydrogen peroxide (H202)) using an MTT (3-(4,5-dimethylthiazol-2-yl)-2,5-diphenyltetrazolium bromide) cell proliferation assay.
SH-SY5Y cells were cultivated in 50% Eagle's minimum essential medium (EMEM), 50% Ham's F12 Nutrient Mixture, 10% fetal bovine serum (FBS), 2 mM L-Glu, and 1% penicillin/streptomycin. All of the cell cultures were maintained in a humidified incubator at 5% CO2 and at 37° C. SH-SY5Y cells were preincubated for 1 hour with BN201 alone, monomethyl fumarate alone, or BN201-monomethylfumarate salt at various concentrations (n=5; concentrations: 0.03 μM, 0.1 μM, 0.3 μM, 0.5 μM, 1 μM, 3 μM, 5 μM, 10 μM, 20 μM, 40 μM) and then H2O2 (15 μM) was added to induce stress. Preincubation with sodium pyruvate (10 mM) was used as a positive control. After 30 minutes of H2O2 incubation, the medium was changed and thiazolyl blue tetrazolium bromide (MTT; Sigma Aldrich; stock concentration 10 mg/ml) was added to each well at the final concentration of 0.5 mg/ml. After 2 hours of MTT incubation the cell medium was removed, and cells were resuspended in pure dimethyl sulfoxide (DMSO). Cell viability was determined by reading the absorbance at 570 nm. Each experiment was performed in quintuplicate.

[2] = system: non-obese diabetic mouse model of relapsing-remitting EAE; conditions: cited from earlier work
[3] = system: rat model of experimental autoimmune encephalomyelitis (EAE); conditions: cited from earlier work
[4] = system: EAE in C57BL6 mice immunized with MOG35-55; assay: Example 3: BN201 and DMF combination, progression of chronic EAE; assay type: in vivo, mouse; conditions: DMF 10 mg/kg oral alone (suboptimal), once a day six days per week from day 15
Method: Effect in the animal model of MS (i.e., EAE in C57BL6 mice immunized with MOG35-55), similar to Example 2.
Starting on day 15, mice were administered: • dimethyl fumarate (DMF) (group A, 10 mice), • BN201 (group B, 10 mice) • a combination thereof (group C, 10 mice) once a day for six days per week at suboptimal dosages (10 mg/kg for DMF, 25 mg/kg for BN201).
DMF was administered orally with a rigid cannula in a saline vehicle at a volume of 10 mL/kg, while BN201 was administered via i.p. injection in a saline vehicle at a volume of 5 mL/kg. Control mice received vehicle only via both oral and i.p. injection (group D, 10 mice) or nothing at all (group E, 2 mice).
The objective of the study was to evaluate the efficacy and safety of combination therapy with suboptimal doses of BN201 (25 mg/kg) and dimethyl-fumarate (DMF) (10 mg/kg) in the progression of chronic EAE in mice.
During a one week acclimation period starting on day −7, mice were distributed based on body weight stratification into different experimental groups. On day 0, mice were immunized subcutaneously in both hind pads with 150 μg of MOG peptide 35-55 (Spikem, Firenze) emulsified with 50 μg of Mycobacterium tuberculosis (H37Ra strain; Difco, Detroit, MI) in incomplete Freund's adjuvant (IFA). […]

[5] = system: experimental autoimmune encephalomyelitis (EAE) mouse model; assay: Study EAE-C05: clinical score in EAE mouse model with active comparators; assay type: in vivo; conditions: 2 mg/kg daily, after 5 days of treatment
Method: A second experiment (Study EAE-C05) was then performed using the same mouse model.
Study EAE-C05: In addition to two dose levels of BN201 and a placebo-treated group (pathological control group), the study design introduced two active comparators, dimethyl fumarate (DMF) and fingolimod (FTY720), and a sham group (group in which animals were manipulated as the pathological group but without MOG injection). All groups were administered daily. • sham control non-diseased placebo-treated animals (healthy control group); • EAE-affected placebo-treated animals (pathological control group); • EAE-affected animals treated orally with 15 mg/kg of DMF; • EAE-affected animals treated with 2 mg/kg of FTY720; • EAE-affected animals treated with BN201 at 50 or 100 mg/kg.
(§1) Clinical scores were assigned to assess disease severity using the following scale: 0=normal; 0.5=Partial tail paralysis; 1=Complete tail paralysis; 1.5=Tail paralysis and loss of righting reflex; 2=Partial hind limb paralysis/paralysis of one limb; 2.5=One limb paralysis and partial loss of activity of one other limb; 3=Bilateral hind limb paralysis; 4=Moribund; 5=exitus.
Therapeutic treatment was initiated on day 12 or 13, once each mouse started showing complete tail paralysis (Score 1).

[6] = system: experimental autoimmune encephalomyelitis (EAE) mouse model; assay: Study EAE-C06: dose response of BN201, clinical score in EAE mouse model; assay type: in vivo; conditions: 2 mg/kg daily, almost all days of observation/treatment (Day 2 to day 30)
Method: A third experiment (Study EAE-C06) to test dose response of BN201 was then performed using the same mouse model.
Study EAE-C06: five different concentrations of BN201: 12.5 mg/kg, 25 mg/kg, 50 mg/kg, 100 mg/kg, and 150 mg/kg. Also sham, pathological control and FTY720 (2 mg/kg) comparator groups were included in the experiment. All groups were administered daily.
as §1
Therapeutic treatment was initiated on day 12 once each mouse started showing complete tail paralysis (Score 1).
Data are depicted in FIG. 1 (C), wherein the clinical score for each of the tested groups is plotted per day after disease onset.

[7] = system: EAE in C57BL6 mice immunized with MOG35-55; assay: Example 4: BN201 and STAT3 inhibitor combination, chronic phase of EAE; assay type: in vivo, mouse; conditions: S31-201 5 mg/kg i.p. alone (optimal), from day 34 to day 54
Method: Effect during the chronic phase of the disease in the animal model of Multiple Sclerosis (i.e., EAE in C57BL6 mice immunized with MOG35-55)
Efficacy and safety of combination therapy with optimal doses of BN201 (50 mg/kg) and S31-201 (5 mg/kg) in the progression of chronic EAE in mice.
Starting the chronic phase of the disease (by day 34) mice were administered: • the STAT3 inhibitor S31-201 (group A, 7 mice), • BN201 (group B, 6 mice), or • a combination thereof (group C, 6 mice) once a day for six days per week at optimal dosages (5 mg/kg for S31-201, 50 mg/kg for BN201).
S31-201 and BN201 were administered via i.p. injection in a saline vehicle at a volume of 5 mL/kg. Control mice received vehicle only via both oral and i.p. injection (group D, 6 mice) or nothing at all (group E, 2 mice). Mice were treated from day 34 (chronic EAE stage) until the end of the experiment on day 54.
The combination of BN201 and the STAT3-inhibitor S31-201 was evaluated for its effect during the chronic phase of the disease in the animal model of Multiple Sclerosis (i.e., EAE in C57BL6 mice immunized with MOG35-55). The objective of the study was to evaluate the efficacy and safety of combination therapy with optimal doses of BN201 (50 mg/kg) and 531-201 (5 mg/kg) in the progression of chronic EAE in mice. […]

For `CC(C)CN(CC(=O)N(CCCN1CCCC1=O)CC(N)=O)C(=O)CNCCc1ccccc1F` [BN201-monomethylfumarate salt], the “cell viability as a percentage compared to the control (protection from death induced by oxidative stress)” value (“cell viability as a percentage” for short) [1] was “increased” and the “cell viability as a percentage” value ([1]; listed as BN201-monomethylfumarate) was “significantly higher level of neuroprotection than either compound alone”.
For `CCCc1ccc(COc2ccc3c(c2)CCC(CN2CC(C(=O)O)C2)=C3C)c(OC)c1` [Ceralifimod, 1-[[6-[(2-methoxy-4-propylphenyl)methoxy]-1-methyl-3,4-dihydronaphthalen-2-yl]methyl]azetidine-3-carboxylic acid], the disease relapse [2] is listed as “prevents disease relapse”, the disease onset [3] is listed as “delays disease onset” and the “lymphocyte infiltration of the spinal cord” value [3] is listed as “inhibits lymphocyte infiltration of the spinal cord”.
With `COC(=O)/C=C/C(=O)OC` [DMF, Dimethyl fumarate, reference compound] the “course of EAE (clinical score) versus placebo” value [4] was “suffered EAE similar to those mice treated with placebo”.
With `CCCCCCCCc1ccc(CCC(N)(CO)CO)cc1` [FTY720, Fingolimod, reference compound] the “clinical score compared to pathological control group” value [5] was “significantly lower” and the clinical score [6] was “significant amelioration of the clinical score”.
For `Cc1ccc(S(=O)(=O)OCC(=O)Nc2ccc(C(=O)O)c(O)c2)cc1` [S31-201, 2-Hydroxy-4-[[[[(4-methylphenyl)sulfonyl]oxy]acetyl]amino]-benzoic acid, reference compound], the “course of EAE in chronic phase (clinical score)” value [7] was “not efficacious”.
With `COC(=O)/C=C/C(=O)O` [fumarate, fumaric acid monomethyl ester, reference compound] the “cell viability as a percentage” value [1] was “partially rescued neurons from death induced by oxidative stress”.
